Test results published in paper PMC6300691, “Enhancement of Heat Stability and Kinetic Parameters of the Maize Endosperm ADP-Glucose Pyrophosphorylase by Mutagenesis of Amino Acids in the Small Subunit With High B Factors” (Frontiers in Plant Science, 2018).
Residue numbers refer to the chain shown, from its start.

How the values were obtained:
Assay type in all cases: biochemical
E123G = biological target: T1, E123G (Zea mays, UniProt P55241+Q947C0, E123G); assay: Activation constant from initial rates with varied 3-PGA (0-1 mM) at 2 mM ATP and 2 mM G-1-P, pH 7.4, 15 mM MgCl2, fitted to V = Vmin + Vmax*X/(Ka + X).
T1 construct: BT2 variant with wild type SH2, E. coli, purified
T1 sequence (P55241 46-516): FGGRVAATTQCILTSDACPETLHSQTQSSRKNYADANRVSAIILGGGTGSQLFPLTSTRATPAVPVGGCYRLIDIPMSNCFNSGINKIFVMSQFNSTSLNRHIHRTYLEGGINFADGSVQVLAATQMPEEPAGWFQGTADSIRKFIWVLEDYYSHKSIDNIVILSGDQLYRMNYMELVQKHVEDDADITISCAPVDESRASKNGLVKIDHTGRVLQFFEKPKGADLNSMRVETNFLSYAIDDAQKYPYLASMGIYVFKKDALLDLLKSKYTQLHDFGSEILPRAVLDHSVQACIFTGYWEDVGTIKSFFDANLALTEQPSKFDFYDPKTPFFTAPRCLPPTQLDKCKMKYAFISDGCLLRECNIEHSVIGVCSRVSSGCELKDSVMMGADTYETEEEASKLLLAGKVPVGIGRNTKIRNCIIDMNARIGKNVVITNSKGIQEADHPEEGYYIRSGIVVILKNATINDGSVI
T1 sequence (Q947C0 entry or part of it E123G): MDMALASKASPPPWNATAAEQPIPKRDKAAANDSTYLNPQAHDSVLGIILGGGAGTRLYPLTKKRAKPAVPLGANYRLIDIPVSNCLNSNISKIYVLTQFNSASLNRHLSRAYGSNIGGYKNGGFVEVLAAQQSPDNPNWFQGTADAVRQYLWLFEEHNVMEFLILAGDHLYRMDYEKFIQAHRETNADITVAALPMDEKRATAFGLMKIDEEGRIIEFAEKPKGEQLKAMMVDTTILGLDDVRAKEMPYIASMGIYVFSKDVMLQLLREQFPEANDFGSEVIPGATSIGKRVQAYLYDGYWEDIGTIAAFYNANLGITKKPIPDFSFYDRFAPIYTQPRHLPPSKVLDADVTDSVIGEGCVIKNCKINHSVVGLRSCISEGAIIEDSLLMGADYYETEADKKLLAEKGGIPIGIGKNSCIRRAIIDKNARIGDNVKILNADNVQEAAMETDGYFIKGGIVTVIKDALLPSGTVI
From the text: (§1) All reactions were developed as above.

E123G, R331K [1] = biological target: T2, E123G, R331K (Zea mays, UniProt P55241+Q947C0, E123G/R331K); assay: as above
T2 construct: BT2 variant with wild type SH2, E. coli, purified
T2 sequence (Q947C0 1-475 E123G/R331K): as the sequence (Q947C0 entry or part of it E123G) above, with R331K counted along it
T2 sequence (P55241 46-516): as the sequence (P55241 46-516) above
From the text: as §1

K403L = biological target: T3, K403L (Zea mays, UniProt P55241+Q947C0, K403L); assay: as above
T3 construct: BT2 variant with wild type SH2, E. coli, purified
T3 sequence (Q947C0 1-475 K403L): as the sequence (Q947C0 entry or part of it E123G) above, with G123E, K403L counted along it
T3 sequence (P55241 46-516): as the sequence (P55241 46-516) above
From the text: as §1

L404H = biological target: T4, L404H (Zea mays, UniProt P55241+Q947C0, L404H); assay: as above
T4 construct: BT2 variant with wild type SH2, E. coli, purified
T4 sequence (Q947C0 1-475 L404H): as the sequence (Q947C0 entry or part of it E123G) above, with G123E, L404H counted along it
T4 sequence (P55241 46-516, stated change not applied): as the sequence (P55241 46-516) above
From the text: as §1

L404K = biological target: T5, L404K (Zea mays, UniProt P55241+Q947C0, L404K); assay: as above
T5 construct: BT2 variant with wild type SH2, E. coli, purified
T5 sequence (Q947C0 1-475 L404K): as the sequence (Q947C0 entry or part of it E123G) above, with G123E, L404K counted along it
T5 sequence (P55241 46-516, stated change not applied): as the sequence (P55241 46-516) above
From the text: as §1

R331K = biological target: T6, R331K (Zea mays, UniProt P55241+Q947C0, R331K); assay: as above
T6 construct: BT2 variant with wild type SH2, E. coli, purified
T6 sequence (Q947C0 1-475 R331K): as the sequence (Q947C0 entry or part of it E123G) above, with G123E, R331K counted along it
T6 sequence (P55241 46-516): as the sequence (P55241 46-516) above
From the text: as §1

SH2-E = biological target: T7, SH2-E (Zea mays, UniProt P55241+Q947C0, N131R/T142F/A160T/Q261S/A396S/V416I/C424V/S444A); assay: as above
T7 construct: SH2-E with wild type BT2 (SH2-E/BT2-WT), E. coli, purified
T7 sequence (Q947C0 1-475): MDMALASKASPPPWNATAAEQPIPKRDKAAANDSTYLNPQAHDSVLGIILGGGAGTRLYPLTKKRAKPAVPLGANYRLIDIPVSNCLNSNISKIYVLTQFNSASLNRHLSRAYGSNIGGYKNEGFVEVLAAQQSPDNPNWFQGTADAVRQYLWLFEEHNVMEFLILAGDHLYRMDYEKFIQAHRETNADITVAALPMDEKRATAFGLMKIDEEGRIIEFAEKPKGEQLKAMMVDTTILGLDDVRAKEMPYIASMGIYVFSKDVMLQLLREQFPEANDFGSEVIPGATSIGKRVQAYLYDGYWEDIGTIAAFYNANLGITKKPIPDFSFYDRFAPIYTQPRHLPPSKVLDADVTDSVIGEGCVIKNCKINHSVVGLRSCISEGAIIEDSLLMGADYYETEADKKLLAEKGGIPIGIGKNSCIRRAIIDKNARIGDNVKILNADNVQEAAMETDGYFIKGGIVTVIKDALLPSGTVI
T7 sequence (P55241 46-516 N131R/T142F/A160T/Q261S/A396S/V416I/C424V/S444A): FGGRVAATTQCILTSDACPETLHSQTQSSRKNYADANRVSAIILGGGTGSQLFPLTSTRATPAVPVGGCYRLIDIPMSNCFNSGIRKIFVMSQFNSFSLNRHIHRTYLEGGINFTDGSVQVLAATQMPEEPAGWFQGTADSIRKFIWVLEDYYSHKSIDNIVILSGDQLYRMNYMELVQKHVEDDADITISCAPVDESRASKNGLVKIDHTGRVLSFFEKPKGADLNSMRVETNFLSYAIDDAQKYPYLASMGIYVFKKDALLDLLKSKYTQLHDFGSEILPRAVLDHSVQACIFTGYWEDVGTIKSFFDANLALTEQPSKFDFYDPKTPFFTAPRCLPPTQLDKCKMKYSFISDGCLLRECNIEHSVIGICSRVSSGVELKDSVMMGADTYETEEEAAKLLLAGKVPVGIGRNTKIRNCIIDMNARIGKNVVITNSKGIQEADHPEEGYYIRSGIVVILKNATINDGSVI
From the text: as §1

SH2-E/BT2-BF [2] = biological target: T8, SH2-E/BT2-BF (Zea mays, UniProt P55241+Q947C0, E123G/N131R/T142F/A160T/Q261S/R331K/A396S/K402R/V416I/C424V/S444A); assay: as above
T8 construct: SH2-E co-expressed with BT2-BF, E. coli, purified
T8 sequence (Q947C0 1-475 E123G/R331K/K402R): T7 sequence (Q947C0 1-475) with E123G, R331K, K402R
T8 sequence (P55241 46-516 N131R/T142F/A160T/Q261S/A396S/V416I/C424V/S444A): T7 sequence (P55241 46-516 N131R/T142F/A160T/Q261S/A396S/V416I/C424V/S444A)
From the text: as §1

E123G, R331K [3] = biological target: T2, E123G, R331K; assay: Initial-rate assay (PPi formation coupled to NADH oxidation) with varied ATP (0.05-3.0 mM) at 2.0 mM G-1-P, 2.5 mM 3-PGA, 15 mM MgCl2, 50 mM HEPES pH 7.4, hyperbolic fit.; details: read-out: KM ATP
From the text: All saturation plots were hyperbolic. No cooperative effects were seen.

SH2-ISM = biological target: T9, SH2-ISM (Zea mays, UniProt P55241+Q947C0, Q96G/D161G/A443R); assay: Pi inhibition study without 3-PGA, ATP varied (0.1-3 mM) at fixed Pi levels (10-30 mM) and sub-saturating G-1-P (1 mM), fit to mixed-type inhibition equations.; details: read-out: Km (mM), varied substrate ATP, Pi inhibition in the absence of 3-PGA
T9 construct: SH2-ISM with wild type BT2 (SH2-ISM/BT2-WT), E. coli, purified
T9 sequence (Q947C0 1-475): T7 sequence (Q947C0 1-475)
T9 sequence (P55241 46-516 Q96G/D161G/A443R): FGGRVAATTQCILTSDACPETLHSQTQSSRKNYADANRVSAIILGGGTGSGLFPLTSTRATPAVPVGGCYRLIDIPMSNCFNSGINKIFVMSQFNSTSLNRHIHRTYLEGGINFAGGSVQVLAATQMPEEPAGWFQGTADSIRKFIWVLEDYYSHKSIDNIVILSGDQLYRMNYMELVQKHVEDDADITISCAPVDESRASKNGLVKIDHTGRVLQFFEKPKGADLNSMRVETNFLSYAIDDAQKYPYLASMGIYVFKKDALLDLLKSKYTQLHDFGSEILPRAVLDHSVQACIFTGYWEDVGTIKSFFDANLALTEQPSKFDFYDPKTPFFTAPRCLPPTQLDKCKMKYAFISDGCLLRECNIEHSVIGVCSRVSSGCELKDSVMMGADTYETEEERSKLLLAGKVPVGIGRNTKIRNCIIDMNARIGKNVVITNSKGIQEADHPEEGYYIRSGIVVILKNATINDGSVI
Experimental: (§2) Pi inhibition was carried out in both the presence and absence of 3-PGA with the Pi and substrate concentrations listed below.
(§3) Pi inhibition patterns in the presence and absence of 3PGA were also determined. Pi inhibition patterns were obtained by varying one substrate at several fixed concentrations of Pi, while holding the co-substrate at constant sub-saturating levels.

SH2-E/BT2-BF [4] = biological target: T8, SH2-E/BT2-BF; assay: as above; details: read-out: Km (mM), varied substrate ATP, Pi inhibition in the absence of 3-PGA
Experimental: as §2, §3

| SMILES | 3-PGA Ka (activation constant) (E123G) | 3-PGA Ka (activation constant) (E123G, R331K [1]) | 3-PGA Ka (activation constant) (K403L) | 3-PGA Ka (activation constant) (L404H) | 3-PGA Ka (activation constant) (L404K) | 3-PGA Ka (activation constant) (R331K) | 3-PGA Ka (activation constant) (SH2-E) | 3-PGA Ka (activation constant) (SH2-E/BT2-BF [2]) | Km (E123G, R331K [3]) [µM] | Km (SH2-ISM) [mM] | Km (SH2-E/BT2-BF [4]) [mM] |
| --- | --- | --- | --- | --- | --- | --- | --- | --- | --- | --- | --- |
| O=C(O)[C@H](O)COP(=O)(O)O [3-PGA, 3-phosphoglycerate (3-phosphoglyceric acid)] | 0.090 ± 0.023 | 0.183 ± 0.024 | 0.41 ± 0.049 | 0.05 ± 0.008 | 0.14 ± 0.047 | 0.07 ± 0.008 | 0.070 ± 0.01 | 0.36 ± 0.09 | – | – | – |
| Nc1ncnc2c1ncn2[C@@H]1O[C@H](COP(=O)(O)OP(=O)(O)OP(=O)(O)O)[C@@H](O)[C@H]1O [ATP, adenosine 5'-triphosphate] | – | – | – | – | – | – | – | – | 80 ± 5 | 0.54 ± 0.057 | 4.98 ± 0.66 |
